The values that follow are results of earlier work, collected in US11839217B2, “Composition comprising a bioactive molecule” (EUCARYO BEHEER B.V., priority 2016, dated 2023).

`C[C@@H]1C/C=C/C=C/C=C/C=C/[C@H](O[C@@H]2O[C@H](C)[C@@H](O)[C@H](N)[C@@H]2O)C[C@@H]2O[C@](O)(C[C@@H](O)C[C@H]3O[C@@H]3/C=C/C(=O)O1)C[C@H](O)[C@H]2C(=O)O` [natamycin]: under “ethanol”, the solubility in ethanol is 40 to 1200 µg/mL. Under “water”, the solubility in water is 30 to 50 µg/mL.
